# Paper PMC8187357 (Communications Biology, 2021)
# Values joined by “and” are separate entries in the source; they are usually repeats but may differ in a detail not shown here. Equal entries are not always repeated.
# What was measured:
# PD-L1 = PD-L1 (Macaca fascicularis, UniProt G7PSE7); assay: Rescue of IFN-γ release inhibited by PD-L1, monkey PBMC; assay type: cell-based; conditions: n=1
# Protocol: The ability of peptides, peptidomimetics, and small molecules were analyzed for their ability to rescue T-cell proliferation or IFN-γ release from the inhibitory activity of PD-L1 or PD-L2 in a splenocyte/PBMC-based functional assay as per the protocols reported in publication. […] For all in vitro assays, test agent stock was prepared in water and diluted further in the assay media to achieve test concentrations. Each experimental condition was carried out in triplicates. Percent rescue for a given test compound concentration was calculated by normalizing individual percent test agent proliferation or IFN-γ release values to percent anti-CD3 and anti-CD28 antibodies stimulated proliferation or IFN-γ release. EC50 values were derived by plotting transformed data into non-linear fit in sigmoidal dose–response curve using GraphPad Prism software (Version 7).
# MC38 tumor bearing mice = assay: Immune pharmacodynamics in MC38 model; assay type: in vivo, mouse; conditions: CA-170, 10 mg/kg, individual animals
# Text: For the measurement of immune pharmacodynamics, CT26 cells were subcutaneously implanted into 5 to 7 weeks old male Balb/c mice by injecting 1 million CT26 tumor cells/ animal. When tumor volume reached ~200mm^3, animals were randomized and allocated to three treatment groups (n = 5). Similarly, for the measurement of immune pharmacodynamics in MC38 model, MC38 cell lines were subcutaneously implanted into 5 to 7 weeks old male C57B6 mice by injecting 0.5 million cells/animal. Dosing was initiated when tumor volume reached ~100 mm^3. In both tumor models, mice were orally treated daily with vehicle and CA-170 (10 mg/kg) for 5 days. As an additional control, anti-PD1 antibody (100 μg/animal, clone J43) was dosed intraperitoneally on day 1. After 24 h of last dosing, animals were sacrificed, and blood samples and tumor tissues were collected from each animal and processed for PD evaluation using antibodies shown in Supplementary Table 1 and specific methods reported in publication[51] and analyzed by FACS. The gating strategy is detailed in Supplementary Fig. 3.
# B16F10 melanoma = B16F10 melanoma lung metastasis model; assay type: in vivo, mouse; conditions: 10 mg/kg/day orally for 14 days
# Protocol: Studies in syngeneic models including B16 melanoma metastasis model and CT26 colon carcinoma subcutaneous model were performed as described. For the Docetaxel combination experiment in CT26 model, indicated dosage of docetaxel (Source: Docetere® injection by Dr Reddy’s Laboratories) was dosed intraperitoneally to animals. For the CA-170 combination groups, CA-170 (10 mg/kg/day, oral) was dosed ~10 min after docetaxel. Animal grouping, treatment efficacy assessment and %TGI calculations were performed as mentioned above. For the CT26 experiment with cyclophosphamide, 100 mg/kg of cyclophosphamide was dosed once on day 5 intraperitoneally after cell implantation (first day of dosing for all other groups). Anti-PD1 antibody (Clone J43 from BioXcel) was dosed intraperitoneally at 100 µg/animal once every week.
# purinergic P2X, P2Y = assay: CEREP 80 panel binding: purinergic; conditions: 10 µM
# Protocol: CEREP 80 panel assay was carried out by Eurofins Cerep Panlabs facility at France. A series of binding assays was carried out to understand the off-target toxicity of CA-170. CA-170 was tested at 10 μM test concentration in duplicates. Compound binding was calculated as a % inhibition of the binding of a radioactively labeled ligand specific for each target. In each experiment the respective reference compound was tested concurrently with CA-170, and the data were compared with historical values determined at Eurofins. The experiment was accepted in accordance with Eurofins validation standard operating procedure. The results are expressed as a percent of control specific binding; (measured specific binding / control specific binding) × 100 and as a percent inhibition of control specific binding; 100−(measured specific binding / control specific binding) × 100 obtained in the presence of CA-170. The IC50 values (concentration causing a half-maximal inhibition of control specific binding) and Hill coefficients (nH) were determined by non-linear regression analysis of the competition curves generated with mean replicate values using Hill equation curve fitting.
# PD-L1, sequence (G7PSE7 19-239): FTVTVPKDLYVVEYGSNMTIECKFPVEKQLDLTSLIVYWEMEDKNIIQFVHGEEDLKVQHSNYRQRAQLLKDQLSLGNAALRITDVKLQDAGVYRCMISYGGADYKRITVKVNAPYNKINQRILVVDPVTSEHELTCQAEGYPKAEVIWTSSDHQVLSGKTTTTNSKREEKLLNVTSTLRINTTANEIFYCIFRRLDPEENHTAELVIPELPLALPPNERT
structure (smiles),measurement,setting,value
C[C@@H](O)[C@H](NC(=O)N[C@@H](CC(N)=O)c1nc([C@@H](N)CO)no1)C(=O)O [CA-170],EC50,PD-L1,97.8 nM
same,"CD8+ GNZ+ T cells in Tumor % Lymphocytes, CD3+, CD8+ T cells",MC38 tumor bearing mice,52.4% and 36.3% and 28.5% and 36.2% and 20.1%
same,"CD8+ IFN-γ+ T cells in Blood % Lymphocytes, CD3+, CD8+ T cells",MC38 tumor bearing mice,1.71% and 2.24% and 2.27% and 1.35% and 2.63%
same,"CD8+ IFN-γ+ T cells in Tumor % Lymphocytes, CD3+, CD8+ T cells",MC38 tumor bearing mice,64.9% and 53.2% and 43.5% and 48.8% and 40.7%
same,reduction in metastatic nodules,"B16F10 melanoma; B16F10, vs vehicle control",73%
same,Individual Metastatic nodules on lungs,"B16F10 melanoma; B16F10 iv in C57B6 mice, 10 mg/kg/day",3 and 23 and 2 and 13 and 0 and 8 and 1 and 10 and 14
same,% Inhibition of Control Specific Binding,"purinergic P2X, P2Y",≤ 3%
